What all share (type): in vivo
The test system of data set [1] is Beet Armyworm (Spodoptera exigua, LAPHEG). Put plainly: Bioassays on Beet Armyworm (BAW), 128-well diet tray assay. The following applies: Spodoptera exigua. In short, it runs like this:
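Diet-overlay assay: 50 μg/cm^2 compound applied in 90:10 acetone-water to artificial diet, allowed to dry, then infested with 1–5 L2 larvae/well; 8 wells/compound; covered, vented; 25° C., 14:10 L:D, 5–7 d; % mortality per well, averaged.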

In data set [2] the test system is Yellow Fever Mosquito (Aedes aegypti, AEDSAE). Particulars: for YFM rating: Table ABC / ABC-DP rating. In a few lines: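 Mortality after 3 days at room temperature is the read-out, scored well by well and converted to a rating. Test molecules came from 4000 ppm stocks in DMSO, further diluted in 90:10 water/acetone, and were exposed to roughly 1-day-old larvae suspended in liver-powder water.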

For data set [3], the system named is Cabbage Looper (Trichoplusia ni, TRIPNI). Put plainly: Bioassays on Cabbage Looper (CL), 128-well diet tray assay. The following applies: Trichoplusia ni. In a few lines:
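Second-instar larvae (1–5 per well) placed on artificial diet surface-treated with 50 μg/cm^2 test molecule applied in 90:10 acetone-water and dried. Held at 25° C., 14:10 light-dark, for five to seven days. Percent mortality scored per well and averaged over eight wells.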

Where [4] appears, read: Beet Armyworm, Table ABC / ABC-DP rating, read-out: BAW rating.
[5] abbreviates: Cabbage Looper, Table ABC / ABC-DP rating, read-out: CL rating.
The mark [6] stands for this setting: Table ABC: Biological Results, species BAW, read-out: BAW.
[7] abbreviates: Table ABC: Biological Results, species YFM.
[8] abbreviates: Table ABC: Biological Results, species CL, read-out: CL.
The mark [9] stands for this setting: Beet Armyworm, rating class, read-out: BAW.
Where [10] appears, read: Yellow Fever Mosquito, rating class.
The mark [11] stands for this setting: Cabbage Looper, rating class, read-out: CL.

Structures are written as SMILES. Read-outs that look alike come from different tables or passages of the source.

As to `O=C(Nc1ccc(F)c(NC(=O)C(F)(F)F)c1)c1cc(NC(=O)[C@H]2[C@H](c3ccc(F)c(C(F)(F)F)c3)C2(Cl)Cl)ccc1Cl` [F1815, 2-Chloro-5-((1R,3R)-2,2-dichloro-3-(4-fluoro-3-(trifluoromethyl)phenyl)cyclopropane-1-carboxamido)-N-(4-fluoro-3-(2,2,2-trifluoroacetamido)phenyl)benzamide], the pest or weed control at 50 µg/cm2 in data set [1] (setting [4]) and in data set [3] (setting [5]) was 50 to 100% throughout. Besides, the YFM rating result in data set [2] (Yellow Fever Mosquito) is listed as “A (80–100)”.
For `C=Cc1cc(NC(=O)c2cc(NC(=O)[C@H]3[C@H](c4cc(Cl)cc(Cl)c4)C3(Cl)Cl)ccc2Cl)cc(F)c1F` (relative stereo) [F1317, trans-2-Chloro-5-(2,2-dichloro-3-(3,5-dichlorophenyl)cyclopropane-1-carboxamido)-N-(3,4-difluoro-5-vinylphenyl)benzamide], the pest or weed control at 50 µg/cm2 in data set [1] (setting [6]) and in data set [3] (setting [8]) was 50 to 100% in each case. In addition, in data set [2] (setting [7]), the YFM result is given as “A (80–100)”.
Consider `O=C(CCC(F)(F)F)Nc1c(F)ccc(NC(=O)c2cc(NC(=O)[C@H]3[C@H](c4ccc(F)c(C(F)(F)F)c4)C3(Cl)Cl)ccc2Cl)c1F` [F1800, 2-Chloro-5-((1R,3R)-2,2-dichloro-3-(4-fluoro-3-(trifluoromethyl)phenyl)cyclopropane-1-carboxamido)-N-(2,4-difluoro-3-(4,4,4-trifluorobutanamido)phenyl)benzamide], for which the pest or weed control at 50 µg/cm2 in data set [1] (setting [4]) and in data set [3] (setting [5]) was 50 to 100% in each case. For the same compound, the YFM rating result in data set [2] (Yellow Fever Mosquito) is “A (80–100)”.
For the compound `Nc1c(F)ccc(NC(=O)c2cc(NC(=O)[C@H]3[C@H](c4cc(Br)cc(S(F)(F)(F)(F)F)c4)C3(Cl)Cl)ccc2Cl)c1F` (relative stereo) [F1042, trans-N-(3-Amino-2,4-difluorophenyl)-5-(3-(3-bromo-5-(pentafluoro-λ^6-sulfanyl)phenyl)-2,2-dichlorocyclopropane-1-carboxamido)-2-chlorobenzamide], the pest or weed control at 50 µg/cm2 in data set [1] (setting [6]) and in data set [3] (setting [8]) was 50 to 100% throughout. The YFM entry in data set [2] (setting [7]) was “A (80–100)”.
Consider `O=C(Nc1ccc(F)c(NC(=O)C(F)(F)C(F)F)c1F)c1cc(NC(=O)[C@H]2[C@H](c3ccc(Cl)c(Cl)c3)C2(Cl)Cl)ccc1Cl` [F1414, 2-Chloro-5-((1R,3R)-2,2-dichloro-3-(3,4-dichlorophenyl)cyclopropane-1-carboxamido)-N-(2,4-difluoro-3-(2,2,3,3-tetrafluoropropanamido)phenyl)benzamide], for which the pest or weed control at 50 µg/cm2 in data set [1] (setting [9]) and in data set [3] (setting [11]) was 50 to 100% in each case. Besides, in data set [2] (setting [10]), the YFM entry is recorded as “A (80–100)”.
Regarding `O=C(NNc1ccc(OC(F)(F)F)cc1)c1cc(NC(=O)[C@H]2[C@H](c3cc(Cl)cc(Cl)c3)C2(Cl)Cl)ccc1Cl` (relative stereo) [F2564, trans-2,2-Dichloro-N-(4-chloro-3-(2-(4-(trifluoromethoxy)phenyl)hydrazine-1-carbonyl)phenyl)-3-(3,5-dichlorophenyl)cyclopropane-1-carboxamide], the mortality at 50 µg/cm2 in data set [1] (168 h, second instar larvae, 50 μg/cm^2 of test molecule on artificial diet, 25° C., five to seven days, average of eight wells, read-out: BAW % Control (or Mortality) rating) is 50 to 100%; in data set [3] (168 h, second instar larvae, 50 μg/cm^2 of test molecule on artificial diet, 25° C., five to seven days, average of eight wells, read-out: CL % Control (or Mortality) rating), 50 to 100%. In addition, the pest or weed control at 50 µg/cm2 in data set [1] (setting [4]) and in data set [3] (setting [5]) was 50 to 100% each time. Further, the YFM rating entry in data set [2] (Yellow Fever Mosquito) is recorded as “A (80–100)”. Besides, the “YFM % Control (or Mortality) rating” value in data set [2] (about 1 day-old larvae, 4000 ppm master solution diluted with 90:10 water/acetone, 15 μL per well plus 220 μL larval mixture, 3 days, mortality) is “A (80–100)”.
On to `Cc1c(NC(=O)c2cc(NC(=O)[C@H]3[C@H](c4ccc(F)c(C(F)(F)F)c4)C3(Cl)Cl)ccc2Cl)ccc(Br)c1N` [F1690, N-(3-Amino-4-bromo-2-methylphenyl)-2-chloro-5-((1R,3R)-2,2-dichloro-3-(4-fluoro-3-(trifluoromethyl)phenyl)cyclopropane-1-carboxamido)benzamide], for which the pest or weed control at 50 µg/cm2 in data set [1] (setting [9]) and in data set [3] (setting [11]) was 50 to 100% in each case. Besides, the YFM entry in data set [2] (setting [10]) was “A (80–100)”.
In the case of `CC(Br)CC(=O)Nc1c(F)ccc(NC(=O)c2cc(NC(=O)[C@H]3[C@H](c4ccc(F)c(C(F)(F)F)c4)C3(Cl)Cl)ccc2Cl)c1F` (stereo partly drawn) [F1853, N-(3-(3-Bromobutanamido)-2,4-difluorophenyl)-2-chloro-5-((1R,3R)-2,2-dichloro-3-(4-fluoro-3-(trifluoromethyl)phenyl)cyclopropane-1-carboxamido)benzamide], the pest or weed control at 50 µg/cm2 in data set [1] (setting [4]) and in data set [3] (setting [5]) was 50 to 100% each time. Further, the YFM rating entry in data set [2] (Yellow Fever Mosquito) is “A (80–100)”.
As to `Cc1c(N)ccc(Br)c1NC(=O)c1cc(NC(=O)[C@H]2[C@H](c3ccc(F)c(C(F)(F)F)c3)C2(Cl)Cl)ccc1Cl` [F1684, N-(3-Amino-6-bromo-2-methylphenyl)-2-chloro-5-((1R,3R)-2,2-dichloro-3-(4-fluoro-3-(trifluoromethyl)phenyl)cyclopropane-1-carboxamido)benzamide], the pest or weed control at 50 µg/cm2 in data set [1] (setting [9]) and in data set [3] (setting [11]) was 50 to 100% each time. Moreover, the YFM result in data set [2] (setting [10]) is “B (More than 0 – Less than 80)”.
On to `CS(=O)(=O)CC(=O)Nc1c(F)ccc(NC(=O)c2cc(NC(=O)[C@H]3[C@H](c4ccc(F)c(C(F)(F)F)c4)C3(Cl)Cl)ccc2Cl)c1F` [F1299, 2-Chloro-5-((1R,3R)-2,2-dichloro-3-(4-fluoro-3-(trifluoromethyl)phenyl)cyclopropane-1-carboxamido)-N-(2,4-difluoro-3-(2-(methylsulfonyl)acetamido)phenyl)benzamide], for which the pest or weed control at 50 µg/cm2 in data set [1] (setting [6]) and in data set [3] (setting [8]) was 50 to 100% each time. Further, the YFM entry in data set [2] (setting [7]) is reported as “A (80–100)”.
For `CC(C#N)C(=O)Nc1c(F)ccc(NC(=O)c2cc(NC(=O)[C@H]3[C@H](c4ccc(F)c(C(F)(F)F)c4)C3(Cl)Cl)ccc2Cl)c1F` (stereo partly drawn) [F1755, 2-Chloro-N-(3-(2-cyanopropanamido)-2,4-difluorophenyl)-5-((1R,3R)-2,2-dichloro-3-(4-fluoro-3-(trifluoromethyl)phenyl)cyclopropane-1-carboxamido)benzamide], the pest or weed control at 50 µg/cm2 in data set [1] (setting [9]) and in data set [3] (setting [11]) was 50 to 100% in each case. The YFM result in data set [2] (setting [10]) is “B (More than 0 – Less than 80)”.
Take `O=C(Nc1ccc(F)c(NC(=O)C(F)F)c1F)c1cc(NC(=O)[C@H]2[C@H](c3cc(Cl)c(Cl)c(Cl)c3)C2(Cl)Cl)cc(F)c1F` [F1437, 5-((1R,3R)-2,2-Dichloro-3-(3,4,5-trichlorophenyl)cyclopropane-1-carboxamido)-N-(3-(2,2-difluoroacetamido)-2,4-difluorophenyl)-2,3-difluorobenzamide]: the pest or weed control at 50 µg/cm2 in data set [1] (setting [9]) and in data set [3] (setting [11]) was 50 to 100% in each case. In data set [2] (setting [10]), the YFM entry is on record as “A (80–100)”.
In the case of `CCOC(C)C(=O)Nc1c(F)ccc(N(C)C(=O)c2cc(NC(=O)[C@H]3[C@H](c4ccc(F)c(C(F)(F)F)c4)C3(Cl)Cl)ccc2Cl)c1F` (stereo partly drawn) [F1797, 2-Chloro-5-((1R,3R)-2,2-dichloro-3-(4-fluoro-3-(trifluoromethyl)phenyl)cyclopropane-1-carboxamido)-N-(3-(2-ethoxypropanamido)-2,4-difluorophenyl)-N-methylbenzamide], the pest or weed control at 50 µg/cm2 in data set [1] (setting [4]) and in data set [3] (setting [5]) was 50 to 100% in each case. Besides, the YFM rating entry in data set [2] (Yellow Fever Mosquito) is “A (80–100)”.
With `Nc1c(F)ccc(NC(=O)c2cc(NC(=O)[C@H]3[C@H](c4cc(F)c(Cl)c(Cl)c4)C3(Cl)Cl)ccc2Cl)c1F` (relative stereo) [F1046, trans-N-(3-Amino-2,4-difluorophenyl)-2-chloro-5-(2,2-dichloro-3-(3,4-dichloro-5-fluorophenyl)cyclopropane-1-carboxamido)benzamide], the pest or weed control at 50 µg/cm2 in data set [1] (setting [6]) and in data set [3] (setting [8]) was 50 to 100% in each case. For the same compound, the YFM entry in data set [2] (setting [7]) is “A (80–100)”.
Consider `O=C(Nc1cc(NC(=O)C(F)F)c(F)c(F)c1F)c1cc(NC(=O)[C@H]2[C@H](c3ccc(F)c(C(F)(F)F)c3)C2(Cl)Cl)ccc1Cl` [F1744, 2-Chloro-5-((1R,3R)-2,2-dichloro-3-(4-fluoro-3-(trifluoromethyl)phenyl)cyclopropane-1-carboxamido)-N-(5-(2,2-difluoroacetamido)-2,3,4-trifluorophenyl)benzamide], for which the pest or weed control at 50 µg/cm2 in data set [1] (setting [9]) and in data set [3] (setting [11]) was 50 to 100% throughout. The YFM entry in data set [2] (setting [10]) is on record as “A (80–100)”.
Turning to `O=C(Nc1ccccc1)c1c(Cl)ccc(NC(=O)[C@H]2[C@H](c3ccc(F)c(Cl)c3)C2(Cl)Cl)c1Cl` (relative stereo) [F1104, trans-2,6-Dichloro-3-(2,2-dichloro-3-(3-chloro-4-fluorophenyl)cyclopropane-1-carboxamido)-N-phenylbenzamide], the pest or weed control at 50 µg/cm2 in data set [1] (setting [6]) and in data set [3] (setting [8]) was 50 to 100% in each case. In addition, in data set [2] (setting [7]), the YFM result is on record as “A (80–100)”.

For the origin of these results see patent publication US20250228239A1, “MOLECULES HAVING PESTICIDAL UTILITY, AND INTERMEDIATES, COMPOSITIONS, AND PROCESSES, RELATED THERETO” (priority 2024, published 2025).
